One may read the Cmax as the highest concentration seen after dosing. Usually MRT stands for a mean duration of stay, worked out from the concentration-time curve. As usually defined, the Tmax is the time at which the peak concentration occurs. In general, solubility refers to how much of the substance goes into solution per volume. The low end stands for little dissolved substance, the high end for much dissolved substance. The half-life is how long it takes for the measured level to halve. A low value points to fast loss.

≈ marks a conversion by molar mass, not a printed value. Like-named read-outs stand apart in the source and are kept apart here.

We go through four compounds from patent US9006253B2, “Crystal of 2-(3,4-dichlorobenzyl)-5-methyl-4-oxo-3,4-dihydrothieno[2,3-D]pyrimidine-6-carboxylic acid” (ASKA Pharmaceutical Co., Ltd., priority 2010, dated 2015).

Series [1] has as its target PDE9 (Homo sapiens, UniProt O76083). The following applies: as described in WO 2006/135080; cited from earlier work.
Series [2] has as its target PDE5 (Homo sapiens, UniProt O76074). Particulars: as described in WO 2006/135080; cited from earlier work.
Series [3] can be described thus: Thermal stability (decomposition product by HPLC, colour after heating). Format: physicochemical. The following applies: 6 hr; for amount of the decomposition product (decarboxylation substance of compound A): HPLC. The procedure: Form I crystal obtained in Example 1 and Form II crystal obtained in Example 2 and amorphous compound A obtained in Production Example 1 were heated at 100° C. for 6 hr or 200° C. for 6 hr, and the amount of the decomposition product 2-(3,4-dichlorobenzyl)-5-methyl-4-oxo-3,4-dihydrothieno[2,3-d]pyrimidine (decarboxylation substance of compound A) was measured by HPLC. In the HPLC measurement, the sample was suspended in a mobile phase, dissolved by adding 1 equivalent of aqueous sodium hydroxide and then applied.
HPLC Measurement Condition measuring apparatus: Waters Alliance HPLC system detector: ultraviolet absorption spectrophotometer (measurement wavelength 225 nm) column: XBridge C18 (Waters) column temperature: constant temperature near 30° C. mobile phase A: acetonitrile mobile phase B: 5 mmol/L ammonium hydrogen carbonate (pH 8.0) gradient method of mobile phase A and mobile phase B: mobile phase A 23% (0 to 15 min), mobile phase A 23%→55% (15 to 30 min), mobile phase A 55% (30 to 50 min)

Series [4] is described as follows: Dog absorption test. It is filed as in vivo. Particulars: 0.3 mg/kg oral administration, average. On the procedure: Form I crystal, Form II crystal and amorphous form of compound A were subjected to a dog absorption test under the following conditions.
sample: except for amorphous form, samples of Form I crystal and Form II crystal sieved to have a particle size of 20 to 63 μm by wet classification (two kinds of sieves and flowing water were used) were used.
Preparation method: 25 mL of water was added to a sample (3 g), and the mixture was gently pulverized in a mortar, classified under pressurization, and draught-dried. As amorphous form, a sample pulverized in agate mortar was used.
method: 9 dogs, 3×3 crossover, 0.3 mg/kg oral administration

A short description of series [5]: Solubility in 0.5% aqueous Tween80 solution at 37° C. It is filed as physicochemical. The following applies: for time at which near saturation was reached: stirring; for solubility: value of 3 hr. The procedure: Form I crystal obtained in Example 1, Form II crystal obtained in Example 2 and amorphous compound A obtained in Production Example 1 (each 50 mg) were suspended in 0.5% aqueous Tween80 solution (20 mL), sonicated, aqueous 0.5% Tween80 solution (180 mL) was added and the mixture was stirred at 37° C.
The solubility was measured by HPLC under the same conditions (isocratic method using acetonitrile/5 mmol/L ammonium hydrogen carbonate (pH 8.0) (27:73) for mobile phase) as in Experimental Example 1 at the time points of 0.5 hr, 1 hr, 2 hr, 3 hr, 4 hr, 5 hr, and 6 hr from the start of stirring. As a result, amorphous compound A reached near saturation at about 0.5 hr, Form I crystal reached near saturation at about 1 hr and Form II crystal reached near saturation at about 2 hr. Therefore, the value of 3 hr was taken as the solubility. The results are shown in Table 11 below together with the results of the following Experimental Example 3.

Series [6] can be described thus: Photostability test. It is filed as physicochemical. Particulars: xenon lamp 18 million Lxs, exposed to light for 8 hr. On the procedure:
Form I crystal, Form II crystal and amorphous form of compound A were subjected to a photostability test under the following conditions. The results are shown in FIG. 17. light source: xenon lamp 18 million Lxs
conditions: sample (6 mg) was weighed in a transparent sample bottle, and exposed to light for 8 hr.
HPLC conditions: same as in Experimental Example 1

Series [7] can be described thus: Dissolution rate (disc, Paddle Method). It is filed as physicochemical. The following applies: 100 mg disc (diameter 12 mm), 0.5% aqueous Tween80 solution 900 mL, 37° C., Paddle Method 50 rpm. The procedure:
Form I crystal obtained in Example 1, Form II crystal obtained in Example 2 and amorphous compound A obtained in Production Example 1 (each 100 mg) were compression molded by a tableting machine for IR measurement having a metal mold pre-treated with magnesium stearate, and formed into discs (diameter 12 mm). Each disc was added to 0.5% aqueous Tween80 solution (900 mL, 37° C.), the concentration was measured every 10 minutes up to 1 hr, and every 1 hour after 1 hr up to 3 hr, by HPLC under the same conditions as in Experimental Example 1 (isocratic method using acetonitrile/5 mmol/L ammonium hydrogen carbonate (pH 8.0) (27:73) for mobile phase) while maintaining the temperature at 37° C. according to the dissolution test apparatus Paddle Method (50 rpm), and each dissolution rate was calculated. The results are shown in Table 11 below together with the results of the above-mentioned Experimental Example 2.

Sequence of PDE9 (O76083 whole entry): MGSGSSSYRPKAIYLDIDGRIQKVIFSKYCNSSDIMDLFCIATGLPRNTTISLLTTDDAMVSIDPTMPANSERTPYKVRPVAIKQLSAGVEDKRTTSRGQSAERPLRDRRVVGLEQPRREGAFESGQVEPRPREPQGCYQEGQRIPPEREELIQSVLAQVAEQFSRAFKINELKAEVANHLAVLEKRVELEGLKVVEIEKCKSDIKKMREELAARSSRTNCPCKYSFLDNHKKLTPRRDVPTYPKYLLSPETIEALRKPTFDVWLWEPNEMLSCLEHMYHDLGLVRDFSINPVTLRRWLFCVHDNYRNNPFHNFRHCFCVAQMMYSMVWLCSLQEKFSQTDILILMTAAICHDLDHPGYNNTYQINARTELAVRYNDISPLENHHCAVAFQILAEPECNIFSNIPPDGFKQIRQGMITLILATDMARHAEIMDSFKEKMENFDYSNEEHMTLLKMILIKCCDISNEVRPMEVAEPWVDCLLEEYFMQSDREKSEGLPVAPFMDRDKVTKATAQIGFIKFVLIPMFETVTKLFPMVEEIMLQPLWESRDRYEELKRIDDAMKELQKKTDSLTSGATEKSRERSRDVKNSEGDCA

Take `Cc1c(C(=O)O)sc2nc(Cc3ccc(Cl)c(Cl)c3)[nH]c(=O)c12` [Compound A, 2-(3,4-dichlorobenzyl)-5-methyl-4-oxo-3,4-dihydrothieno[2,3-d]pyrimidine-6-carboxylic acid]: the PDE9 inhibitory action entry in series [1] is listed as “high PDE9 inhibitory action”. For the same compound, the PDE5 inhibitory action entry in series [2] is “mild PDE5 inhibitory action”.
In the case of `Cc1c(C(=O)O)sc2nc(Cc3ccc(Cl)c(Cl)c3)[nH]c(=O)c12` [Form II crystal, 2-(3,4-dichlorobenzyl)-5-methyl-4-oxo-3,4-dihydrothieno[2,3-d]pyrimidine-6-carboxylic acid], in series [3] (heated at 100° C.), the color of sample result is listed as “white” and the “amount of the decomposition product (decarboxylation substance of compound A)” value (shortened to “amount of the decomposition product”) turned out to be 0%. Further, in series [3] (heated at 200° C.), the color of sample result is “slight brown” and the “amount of the decomposition product” value is 0.07%,. In addition, in series [4], the AUC0-t came to 24.2 ng·h/mL, the AUCinf is 24.2 ng·h/mL, the Cmax was determined as 3.7 ng/mL and the MRT was 6.89 h. Besides, in series [4], the T1/2 came out at 3.32 h and the Tmax was found to be 3.44 h. In addition, in series [5], the “time at which near saturation was reached” value (“time” below) was “about 2 hr” and the solubility worked out at 10 µg/mL (≈ 27.1 µM). In addition, the photostability result in series [6] is given as “comparatively stable”. The dissolution rate in series [7] amounted to 0.0011 µg/mL/min.
With `Cc1c(C(=O)O)sc2nc(Cc3ccc(Cl)c(Cl)c3)[nH]c(=O)c12` [Amorphous form, 2-(3,4-dichlorobenzyl)-5-methyl-4-oxo-3,4-dihydrothieno[2,3-d]pyrimidine-6-carboxylic acid], in series [3] (heated at 100° C.), the color of sample entry is recorded as “slight brown” and the “amount of the decomposition product” value is 0.006%,. Moreover, in series [3] (heated at 200° C.), the color of sample entry was “pale-brown” and the “amount of the decomposition product” value is 3.42%,. In series [4], this compound had an AUC0-t of 62.9 ng·h/mL, an AUCinf of 63.4 ng·h/mL, a Cmax of 10.3 ng/mL and an MRT of 6.31 h. In addition, in series [4], the T1/2 is 3.05 h and the Tmax came out at 3.78 h. For the same compound, the “time” value in series [5] (listed as amorphous compound A) was “about 0.5 hr”. The solubility in series [5] is 37 µg/mL (≈ 100 µM). Besides, the “impurity after light exposure” value in series [6] (HPLC) is given as “exceeding 0.2%”. In series [7], this compound returned a dissolution rate of 0.0052 µg/mL/min.
`Cc1c(C(=O)O)sc2nc(Cc3ccc(Cl)c(Cl)c3)[nH]c(=O)c12` [Form I crystal, 2-(3,4-dichlorobenzyl)-5-methyl-4-oxo-3,4-dihydrothieno[2,3-d]pyrimidine-6-carboxylic acid]: in series [3] (heated at 100° C.), the color of sample entry is “white” and the “amount of the decomposition product” value was found to be 0%. Also, in series [3] (heated at 200° C.), the color of sample result was “slight brown” and the “amount of the decomposition product” value is 0.05%,. In series [4], this compound came in with an AUC0-t of 64.6 ng·h/mL, an AUCinf of 65.6 ng·h/mL and a Cmax of 9.1 ng/mL. In series [4] (in vivo, po, 0.3 mg/kg), the half-life was 3.5 h. Also, the MRT in series [4] (in vivo, po, 0.3 mg/kg, read-out: MRT) amounted to 6.73 h. Also, in series [4] (in vivo, po, 0.3 mg/kg, read-out: Tmax), the Tmax stood at 3.06 h. Also, in series [5], the “time” value is given as “about 1 hr” and the solubility was found to be 15 µg/mL (≈ 40.6 µM). For the same compound, the photostability entry in series [6] was “comparatively stable”. The dissolution rate in series [7] came to 0.0017 µg/mL/min.
